Data taken from patent US20230381170A1, “METHOD FOR TREATING ALS/FTD THROUGH DEGRADATION OF RNA REPEAT EXPANSION” (University of Florida Research Foundation, Incorporated, priority 2020, published 2023).
Entries after “also recorded” stand apart in the source; their conditions may differ.

Assays:
[1] = tested on: C9orf72 intron 1 harboring r(G4C2)exp; test: C9orf72 intron 1 RT-qPCR in patient-derived iPSCs; assay type: cell-based, human
Experimental: (§1) iPSCs were treated for 4 days in Matrigel (356234, Corning) coated plates with mTeSR™1 feeder-free medium ([…] Technologies; Catalog #85850). Cells were treated in 6-well plates on day 1 and 3 with compounds diluted in 0.1% final DMSO.
Measuring Levels of C9orf72 and C9orf72 Variants by RT-qPCR. LCLs were seeded in 6-well plate (˜10^6 cells in 2 mL of growth medium) and incubated overnight at 37° C. Cells were then treated with various concentrations of compound for 24 h or with G4C2-ASO and Control-ASO (100 nM), delivered by transfection with Lipofectamine RNAiMax. RNA was extracted as described above and the expression of C9orf72 variants was determined by RT-qPCR. For iPSC and iPSC-derived motor neuron cell line, the cells were seeded into Matrigel-coated 6-well plate to ˜60% confluence before treated with 3 μM C9orf72-ASO or Control-ASO and various concentrations of compound for 1 to 2 weeks. For compound treatment well, medium change was performed with fresh compound every 3-4 days. RNA was extracted as described above and the expression of C9orf72 variants was determined by RT-qPCR.

[2] = tested on: Poly(GP); test: Poly(GP) by immunoassay in patient-derived iPSCs; assay type: cell-based, human; details: for Poly(GP) levels: iPSCs from c9ALS patients
Experimental: as §1
Measuring Poly(GP) Levels by Electrochemiluminescence. LCLs were seeded in T-25 flash at 400,000 cells/mL in 5 mL of growth medium. After overnight incubation, the cells were treated with compound or ASO for 4 days at 37° C. After the treatment period, the cells were pelleted, and total protein was extracted by incubating with CoIP2 Buffer (50 mM Tris-HCL, pH 7.4, 300 mM NaCl, 5 mM EDTA, 1% (v/v) Triton-X 100, 2% (w/v) sodium dodecyl sulfate, and 0.01% (v/v) protease and phosphatase inhibitors) on ice for 5 min and then sonication (3 s intervals at 35% power for ˜40 s). Detergent was then removed using Pierce™ Detergent Removal Spin Columns following manufacturer's protocol. Protein concentration was measured by Pierce™ BCA Protein Assay Kit.
Levels of poly(GP) were measured using Meso Scale Discovery MSD Gold 96-well Streptavidin SECTOR plates. Both capture and detection antibodies were generated using an anti-poly(GP) antibody kindly provided by the Target ALS Foundation. To serve as the capture antibody, the poly(GP) antibody was conjugated to biotin using EZ-Link™ Sulfo-NHS-LC-Biotin (Thermo Fisher) as per the manufacturer's protocol. To serve as the detection antibody, the poly(GP) antibody was sulfo-tagged using MSD GOLD SULFO-TAG NHS-Ester (Meso Scale Discovery) as per the manufacturer's protocol. The conjugated antibodies were desalted with 40K Zeba™ Spin Desalting Columns (Thermo Fisher Scientific), and their concentrations were determined by Pierce™ BCA Protein Assay Kit.
Briefly, the plates were incubated with 2 μg/ml of anti-poly(GP)-biotin antibody at 4° C. overnight. […] After washing with 150 μL of 1×TBST three times, 1×MSD GOLD Read Buffer was added to each well, and electrochemiluminescence was measured using a SECTOR Imager (MSD). […]

[3] = target: r(G4C2)8 and hnRNP H1 complex; test: TR-FRET hnRNP H binding assay; assay type: biochemical; details: inhibiting r(G4C2)8 and hnRNP H1 complex formation; 7 in the absence of Rnase L
Experimental: TR-FRET hnRNP H Binding Assay. TR-FRET assays were performed as previously described (12). The mixture was incubated for 15 min at room temperature and then hnRNP H1-His6 was added. After an additional 15 min incubation, streptavidin-XL665 (HTRF, Cisbio Bioassays) and anti-His6-Tb (HTRF, Cisbio Bioassays) were added to a final concentration of 40 nM and 0.44 ng/μL, respectively. After incubating for 1 h, TR-FRET was measured as previously described (12).

[4] = tested on: Poly(GP); test: Poly(GP) sandwich immunoassay in brain of +/+PWR500 mice; assay type: in vivo, mouse
Experimental: Therapeutic Efficacy in a c9ALS/FD mouse model. All animal studies were completed as approved by the Scripps Florida Institutional Animal Care and Use Committee. A total of 24 mice (12+/+PWR500 [7 Male and 5 Female] and 12 WT [6 Male and 6 Female]) mice, age- and gender-matched and ranging in age from 18-22 weeks old were used in therapeutic efficacy studies (Table 6). Mice were anesthetized by intraperitoneal (i.p.) injection of 10 mg/mL Ketamine:1 mg/mL Xylazine solution. Intracerebroventricular (ICV) stereotactic injections of 10 μL of 7 (33 nmol) were administered into the right ventricle using the following coordinates: 0.2 mm posterior and 1.0 mm lateral to the right from the bregma and 3 mm deep. Mice were treated with 7 or vehicle consisting of 1% DMSO in Saline. Three weeks post-treatment, mice were euthanized, and tissue was harvested for study.
Measuring Poly(GP) by MSD. Postmortem brain tissue was harvested and sliced sagittal at the midline. The left hemisphere was frozen for protein and RNA analysis. The left hemisphere of each brain was homogenized in 300 μL of ice-cold Tris-EDTA buffer with 2× protease inhibitors. […] Protein concentrations were measured by BCA assay (Pierce Biotechnology) and Poly(GP) was measured as described above. Statistical analysis was measured using an unpaired t-test with Welch's correction.

Compound	C9orf72 intron 1 levels ([1]; patient-derived iPSCs)	Poly(GP) levels [2]	IC50 [3]	reduction of r(G4C2)exp-containing intron 1 levels ([1]; 50 nM)	reduction of r(G4C2)exp-containing intron 1 levels ([1]; 500 nM)	potency and duration of activity for reducing Poly(GP) abundance compared to parent compound 3 [2]	reduction of Poly(GP) ([4]; 33 nmol ICV, three weeks, brain)	actin protein expression (control) ([4]; +/+PWR500 or WT mice)
Cc1c2ccncc2c(C)c2c1[nH]c1ccc(OCCOCCOCCNCCOCCOCCOc3ccc4[nH]c5c(C)c6ccncc6c(C)c5c4c3)cc12 [Compound 3]	no effect	reduced Poly(GP) levels dose-dependently	0.9 ± 0.1 µM	–	–	–	–	–
CCOC(=O)C1=C(Nc2ccccc2)S/C(=C\c2ccc(OCCOCCOCCOCCNC(=O)CCC(=O)N(CCOCCOCCOc3ccc4[nH]c5c(C)c6ccncc6c(C)c5c4c3)CCOCCOCCOc3ccc4[nH]c5c(C)c6ccncc6c(C)c5c4c3)c(O)c2)C1=O [Compound 7]	–	significant reduction	2.4 ± 0.1 µM	45±11%	64±10%	significant increase in potency and a prolonged period of activity; also recorded: significant (P<0.05) increase in potency and a prolonged duration of activity	74±24%	no decrease
